# In patent US20220049283A1, “Method of detecting SARS-CoV-2 cleavage targeted proprotein convertase and facilitated protease activity” (priority 2020, published 2022):
# Test system: SARS-CoV-2 specific substrate (S1/S2 boundary peptide)
# Format: biochemical
# Conditions: substrate 10 ng/well, 25 min incubation, OD 450 nm, FIG. 4
substance,measurement,value
trypsin,lowest amount of enzyme from which cleavage activity can be detected,10 ng
